Our source for the logP values is the OPERA property sets (Mansouri et al. 2018).

What is called logP is the decadic logarithm of the partition coefficient of the neutral form, usually between octanol and water.

As to `NC1=NCC(COc2ccccc2)O1` (configuration not stated), the logP stood at 1.27.
Next, `COc1ccccc1OCC1CN=C(N)O1` (configuration not stated): 0.85; `NC1=NCC(COc2ccc(Cl)cc2)O1` (configuration not stated): 2.
On to `NC1=NCC(COc2ccc(N3CCOCC3)cc2)O1` (configuration not stated), for which the logP came out at 0.6.
Regarding `NC1=NCC(COc2ccc([N+](=O)[O-])cc2)O1` (configuration not stated), the logP was 1.17.
`NC1=NCC(COc2cccc([N+](=O)[O-])c2)O1` (configuration not stated) gave a logP of 1.23.
In turn, `Cc1ccccc1OCC1CN=C(N)O1` (configuration not stated) registered a logP of 1.69.
In turn, `COc1ccc(OCC2CN=C(N)O2)cc1` (configuration not stated) had a lipophilicity (logP) of 1.26.
`NC1=NCC(COc2ccccc2Cl)O1` (configuration not stated): the logP was 1.77.
The compound `Cc1ccc(OCC2CN=C(N)O2)cc1` (configuration not stated) returned a lipophilicity (logP) of 1.79.
As for `CCOc1ccccc1OCC1CN=C(N)O1` (configuration not stated), the logP came to 1.24.
Regarding `CN(C)c1cccc(OCC2CN=C(N)O2)c1` (configuration not stated), the logP was 1.4.
